Test results taken from the OligoGym collection.
After the bases stand the sugars from the 5' end (letter, count) and the backbone: PS all phosphorothioate, else s phosphorothioate and o phosphodiester by linkage. Methylation of C is not given here. e = 2'-O-(2-methoxyethyl) (MOE); k = constrained ethyl (cEt); d = 2'-deoxy (DNA); m = 2'-O-methyl

What was measured:
[1] = biological target: IRF4; settings: ASO
[2] = biological target: HSD17B13; settings: ASO, HepaRG

Sequence	target mRNA inhibition ([2]; 1 µM) [%]	other results
AAAACAGCCGCCGGCA (sugars k3 d10 k3, PS)	–	target mRNA inhibition ([1]; MM.1R, 1 µM): -9%
AAAATATAACGGTGTT (sugars k3 d10 k3, PS)	–	target mRNA inhibition ([1]; SK-MEL-28, 4 µM): 31%
AAAATATCGCCCATGA (sugars k3 d10 k3, PS)	–	target mRNA inhibition ([1]; SK-MEL-28, 4 µM): 41%
AAACACAGTCTGCTGC (sugars k3 d10 k3, PS)	–	target mRNA inhibition ([1]; SK-MEL-28, 4 µM): 35%
AAACAGGAACTGACCT (sugars k3 d10 k3, PS)	–	target mRNA inhibition ([1]; SK-MEL-28, 4 µM): 20%
AAACGGACTGGAACAT (sugars k3 d10 k3, PS)	–	target mRNA inhibition ([1]; SK-MEL-28, 4 µM): 7%
AAACTTGGGTCACTTA (sugars k3 d10 k3, PS)	–	target mRNA inhibition ([1]; MM.1R, 1 µM): 5%
AAAGAGCGCATTTCAG (sugars k3 d10 k3, PS)	–	target mRNA inhibition ([1]; SK-MEL-28, 4 µM): 6%
AAAGAGCTGGTAGGTC (sugars k3 d10 k3, PS)	–	target mRNA inhibition ([1]; MM.1R, 1 µM): -35%
AAAGAGCTTGCAGGTC (sugars k3 d10 k3, PS)	–	target mRNA inhibition ([1]; SK-MEL-28, 4 µM): 37%
TGTAAGAGTCAGTATC (sugars k3 d1 m1 d8 k3, PS)	29	–
TGTAAGAGTCAGTATC (sugars kkdddddddddkekek, PS)	35	–
TGTAATAGCCAGTACA (sugars k3 d9 k3 e1, PS)	34	–
TGTAATAGCCAGTACA (sugars kkdddddddddkekek, PS)	45	–
TGTAATTGGCTCTTGA (sugars k3 d10 k3, PS)	0	–
TGTACCAAACTTGCCC (sugars k3 d10 k3, PS)	53	–
TGTAGTCCTAGGGAGG (sugars k3 d10 k3, PS)	86	target mRNA inhibition ([2]; 0.02 µM): 0%; target mRNA inhibition ([2]; 0.078 µM): 0%; target mRNA inhibition ([2]; 0.313 µM): 32%; target mRNA inhibition ([2]; 1.25 µM): 66%; target mRNA inhibition ([2]; 5 µM): 83%
TGTAGTGGGAGTCGGA (sugars k3 d1 m1 d8 k3, PS)	50	–
TGTAGTGGGAGTCGGA (sugars k3 d9 k3 e1, PS)	53	–
TGTATGAGGTCTCTCA (sugars k3 d10 k3, PS)	66	–
TGTCCAGGTTGAGATA (sugars k3 d9 k3 e1, PS)	45	–
TGTCCAGGTTGAGATA (sugars k3 d10 k3, PS)	48	–
TGTGAGAAGGCGGTAT (sugars k3 d10 k3, PS)	20	–
TGTTATCAGAAACTTA (sugars k3 d10 k3, PS)	44	–
TGTTGATATTCTGTGG (sugars k3 d10 k3, PS)	68	–

Sequence	target mRNA inhibition ([2]; 1 µM) [%]	other results
TTAAAATAGAGTCGGT (sugars k3 d9 k3 e1, PS)	71	–
TTAAGAGAAGGTGCAC (sugars k3 d10 k3, PS)	38	–
TTAAGATGTCCAGGCA (sugars k3 d10 k3, PS)	35	–
TTAATGCCACCCTACC (sugars k3 d9 k3 e1, PS)	20	–
TTACAGCATCAAGACA (sugars kkdddddddddkekek, PS)	22	–
TTACCAGAGCATTCAT (sugars k3 d10 k3, PS)	50	–
TTACCCCTGGCTTTTC (sugars k3 d10 k3, PS)	26	–
TTAGAAGTCAGCCCAA (sugars k3 d10 k3, PS)	37	–
TTAGAATAGTCTTCAG (sugars k3 d10 k3, PS)	52	–
TTAGAGTGAATCATTC (sugars k3 d10 k3, PS)	69	–
TTAGATTGCATAAGAG (sugars k3 d10 k3, PS)	61	–
TTAGCTTAAACTCCAA (sugars k3 d10 k3, PS)	78	target mRNA inhibition ([2]; 0.02 µM): 0%; target mRNA inhibition ([2]; 0.078 µM): 18%; target mRNA inhibition ([2]; 0.313 µM): 38%; target mRNA inhibition ([2]; 1.25 µM): 75%; target mRNA inhibition ([2]; 5 µM): 82%
TTAGGATTAATTCCCT (sugars k3 d10 k3, PS)	14	–
TTAGTCTTGATGTAGT (sugars k3 d10 k3, PS)	61	–
TTAGTTAGAATAGTCT (sugars k3 d9 k3 e1, PS)	67	–
TTATAACTACAAGAGG (sugars k3 d9 k3 e1, PS)	43	–
TTATAGACTGGGTAGG (sugars k3 d10 k3, PS)	51	–
TTATGTAATAGCCAGT (sugars k3 d9 k3 e1, PS)	77	target mRNA inhibition ([2]; 0.02 µM): 0%; target mRNA inhibition ([2]; 0.078 µM): 13%; target mRNA inhibition ([2]; 0.313 µM): 14%; target mRNA inhibition ([2]; 1.25 µM): 74%; target mRNA inhibition ([2]; 5 µM): 92%
TTATGTGATTGAGTTC (sugars k3 d10 k3, PS)	34	–
TTATTAGAAGTCAGCC (sugars k3 d10 k3, PS)	36	–
TTATTATGAGGATCTG (sugars k3 d10 k3, PS)	50	–
TTATTCACCACGATTG (sugars k3 d10 k3, PS)	40	–
TTATTGCCTGAACACA (sugars k3 d10 k3, PS)	58	–
TTCACAAAAACTGGGC (sugars k3 d10 k3, PS)	37	–
TTCAGTCCTTGTGTAG (sugars k3 d10 k3, PS)	45	–

Sequence	target mRNA inhibition ([2]; 1 µM) [%]	other results
TTCCATCTATCAGACT (sugars k3 d1 m1 d8 k3, PS)	38	–
TTCCATCTATCAGACT (sugars k3 d9 k3 e1, PS)	43	–
TTCTGTGGCATGGCTA (sugars kkdddddddddkekek, PS)	50	–
TTCTTACGACTTCATC (sugars k3 d10 k3, PS)	47	–
TTCTTATGTAATAGCC (sugars k3 d10 k3, PS)	71	target mRNA inhibition ([2]; 0.02 µM): 16%; target mRNA inhibition ([2]; 0.078 µM): 39%; target mRNA inhibition ([2]; 0.313 µM): 66%; target mRNA inhibition ([2]; 1.25 µM): 86%; target mRNA inhibition ([2]; 5 µM): 96%
TTCTTATGTAATAGCC (sugars kkdddddddddkekek, PS)	78	target mRNA inhibition ([2]; 0.02 µM): 8%; target mRNA inhibition ([2]; 0.078 µM): 28%; target mRNA inhibition ([2]; 0.313 µM): 52%; target mRNA inhibition ([2]; 1.25 µM): 79%; target mRNA inhibition ([2]; 5 µM): 82%
TTCTTGAGAGTGATTG (sugars k3 d10 k3, PS)	52	–
TTCTUATGTAATAGCC (sugars k3 d1 m1 d8 k3, PS)	66	–
TTGAACAGTCTTAAAC (sugars k3 d10 k3, PS)	33	–
TTGAACCGTATTCCCA (sugars k3 d10 k3, PS)	76	–
TTGAATAGCAAGCCAA (sugars kkdddddddddkekek, PS)	27	–
TTGACTAAGGAGCTAG (sugars k3 d10 k3, PS)	20	–
TTGACTGCTGCTAGTG (sugars k3 d9 k3 e1, PS)	50	–
TTGACTGCTGCTAGTG (sugars k3 d10 k3, PS)	30	–
TTGAGATAAAGCTGCC (sugars k3 d1 m1 d8 k3, PS)	51	–
TTGAGATAAAGCTGCC (sugars k3 d10 k3, PS)	49	–
TTGAGCCTAAAATTGT (sugars k3 d10 k3, PS)	36	–
TTGAGTAGTGTAAGCT (sugars k3 d1 m1 d8 k3, PS)	35	–
TTGAGTAGTGTAAGCT (sugars k3 d10 k3, PS)	52	–
TTGAGTAGTGTAAGCT (sugars kkdddddddddkekek, PS)	29	–
TTGAGTTCTCCACTGC (sugars k3 d9 k3 e1, PS)	26	–
TTGAGTTCTCCACTGC (sugars kkdddddddddkekek, PS)	20	–
TTGATATTCTGTGGCA (sugars k3 d9 k3 e1, PS)	76	target mRNA inhibition ([2]; 0.02 µM): 0%; target mRNA inhibition ([2]; 0.078 µM): 0%; target mRNA inhibition ([2]; 0.313 µM): 25%; target mRNA inhibition ([2]; 1.25 µM): 51%; target mRNA inhibition ([2]; 5 µM): 55%
TTGATATTCTGTGGCA (sugars kkdddddddddkekek, PS)	55	–
TTGATGTAGTGGGAGT (sugars k3 d10 k3, PS)	68	–

Sequence	target mRNA inhibition ([2]; 1 µM) [%]	other results
TTGAUCTCTTAGCTGT (sugars k3 d1 m1 d8 k3, PS)	50	–
TTGCAAAATGTGATGC (sugars k3 d10 k3, PS)	75	–
TTGCAATGAGATTACC (sugars k3 d10 k3, PS)	29	–
TTGCACCGTTTTGGGC (sugars k3 d10 k3, PS)	45	–
TTGCAGAAATTCACCT (sugars k3 d9 k3 e1, PS)	29	–
TTGCAGTTATTAGAAG (sugars k3 d10 k3, PS)	13	–
TTGGAATGCTACTTGA (sugars k3 d9 k3 e1, PS)	56	–
TTGGACATGAAGATTA (sugars k3 d10 k3, PS)	18	–
TTGGTAAGTATTCCAT (sugars kkdddddddddkekek, PS)	13	–
TTGTATTTCGCTACTG (sugars k3 d10 k3, PS)	58	–
TTTAAAATAGAGTCGG (sugars k3 d1 m1 d8 k3, PS)	77	–
TTTAACTACCCTCACA (sugars k3 d10 k3, PS)	0	–
TTTAGTTGGTAGCTTG (sugars k3 d10 k3, PS)	63	–
TTTATAACTACAAGAG (sugars k3 d10 k3, PS)	38	–
TTTATGTAAGCACAGA (sugars k3 d10 k3, PS)	70	–
TTTCAGATCCCGTTCT (sugars k3 d10 k3, PS)	45	–
TTTCTCTCCATCATCG (sugars k3 d10 k3, PS)	27	–
TTTCTTATGTAATAGC (sugars k3 d10 k3, PS)	76	–
TTTCTTATTGGTAAGT (sugars k3 d10 k3, PS)	44	–
TTTGGTGAACCCAGTA (sugars k3 d10 k3, PS)	34	–
TTTTAATACGACTTCC (sugars k3 d10 k3, PS)	57	–
TTTTATTATGAGGATC (sugars k3 d10 k3, PS)	18	–
TTTTCGGCACTCAGCT (sugars k3 d10 k3, PS)	13	–
TTTTGTCCACCTTTAA (sugars k3 d10 k3, PS)	68	–
